Data from patent publication US10799464B2, “Delivery systems” (Textile-Based Delivery, Inc., priority 2014, dated 2020).

How the values were obtained:
[1] = Use testing of allantoin-loaded yarn; type: in vivo; conditions: 25% in RTV imbibed into 40 Denier texturized nylon yarn
Excerpt: Allantoin, which is frequently used as an active in skin creams, was dispersed in RTV at 25%, and this matrix imbibed into a 40 Denier texturized nylon yarn. Some of this was plied with a 40 Denier nylon yarn. Another portion was air-covered with a spandex yarn.

[2] = Informal wear test of aspirin sleeve; type: in vivo; conditions: sleeve worn on the elbow or knee
Excerpt: (§1) Aspirin (acetylsalicylic acid) was ground to a fine powder and dispersed at 25% wt/wt in Novagard 200-260. This was imbibed into a texturized 70 Denier nylon yarn, then plied with a textured 70 Denier nylon yarn. The yarn was then knitted into several sleeves.

[3] = Release test on fabric swatches after washing or dyeing (retention of active), absorbance at 280 nm; type: physicochemical
Description: This Example provides exemplary release tests on fabrics from yarns of the disclosure. These release measurements were performed on small swatches of fabric produced from yarn of the disclosure, and washed or otherwise stressed before release testing. Release was used to quantify how much active is retained intact after the stress. No coating was necessary for this test. Retention of active through stresses such as washes and scouring is a key distinguishing benefit of yarns of this disclosure and enables medicated fabrics that can be applied in a wide range of applications that demand washability in order to be commercially viable.
as §1
Washing with hot detergent water was then done once (on swatch #2), 5 times (swatch #3), or 10 times (swatch #4). Swatch #1 was the control with zero washings. Each swatch, a fixed 1-inch square, was placed in water for release, and after two days the absorbance measured at 280 nanometers.
Another sleeve was dyed using a standard dyeing process, which included scouring at the upper limit of the normal range of temperatures in dyeing, namely 220° F. for 45 minutes. […] Over 50% potency was retained through this intense process.

[4] = Franz cell transdermal delivery test
Description: This was then tested in a Franz cell apparatus (Zyleris Pharmatech) for its ability to deliver the active (arecoline) transdermally.
The test article, in this case the aforementioned arecoline-loaded fabric, was placed atop a small piece of freshly excised skin, in this case from a pig's ear; below the skin was a reservoir containing bovine serum albumin buffer to simulate blood plasma. In order to reach the reservoir, the active had to diffuse transdermally across the layer of skin. Three such Franz cells were used so that the experiment was done in triplicate. A small aliquot was drawn from each reservoir at the 24-hour point and tested for arecoline as now described.
A reference arecoline solution was prepared by dissolving approximately 3 milligrams arecoline hydrobromide (ScienceLab.com) in approximately 0.5 milliliters of bovine serum albumin buffer, for an approximate concentration of about 6 milligrams/milliliter. The reference solution was spotted alongside all three samples (labelled R7, R8 and R9) on a TLC plate at the origin. After driving out the water from the spots with heat, the spotted TLC plate was allowed to cool, then developed in 100% methanol inside a developing tank. […]

[5] = typical topical cream, depending on the severity of pain; cited from earlier work

Q: With `NC(=O)NC1NC(=O)NC1=O` (stereo not drawn) [Allantoin] as the molecule, how does the “skin effect (in words)” value [1] read?
A: skin-soothing, softening effect

Q: Which results are given for `CC(=O)Oc1ccccc1C(=O)O` [Aspirin, acetylsalicylic acid]?
A: analgesia (in words) [2]: significant analgesia; Absorbance (at 280 nm) ([3]; 1 wash with hot detergent water, 1-inch square swatch in water, two days): 0.077; Absorbance (at 280 nm) ([3]; 5 washes with hot detergent water, 1-inch square swatch in water, two days): 0.038; Absorbance (at 280 nm) ([3]; 10 washes with hot detergent water, 1-inch square swatch in water, two days): 0.045; Absorbance (at 280 nm) ([3]; Control (0 washes), 1-inch square swatch in water, two days): 0.097; Absorbance (at 280 nm) ([3]; Dyed (scouring at 220° F. for 45 minutes)): 0.051; retention of the active ([3]; after 10 washings): about 45%; potency retained ([3]; after standard dyeing process, scouring 220° F. for 45 minutes): Over 50%

Q: With `COC(=O)C1=CCCN(C)C1` [arecoline] as the molecule, how does the “concentration of arecoline in the reservoirs” value ([4]; 24-hour point, uncoated fabric of polyester yarn imbibed with 10% arecoline hydrobromide in Novagard 200-260, TLC spot intensity vs reference) read?
A: ~5 milligrams/milliliters

Q: What about the “transdermal delivery (in words)” value ([4]; pig ear skin Franz cell model, imbibed yarn) of the same molecule?
A: effective

Q: Which “effective daily dose for relief in the foot, ankle, and calf” value [5] does the source give for `COc1cc(CNC(=O)CCCC/C=C/C(C)C)ccc1O` [capsaicin] here?
A: 0.5 to 6 mg
